Experiment [1] deals with E. coli 0404018. Nature of the experiment: MIC of carbapenems with or without DMSA. Type of experiment: cell-based. The following applies: E. coli 0404018, VIM-1 + CMY-6; no DMSA. As to the method: (§1) Minimum inhibitory concentrations (MICs) of carbapenems were determined in-vitro with strains (reference and clinical) producing the three main types of class B carbapenemases which are IMP, VIM and NDM, with or without EDTA and DMSA.
(§2) MICs of imipenem was determined for E. coli TOP10 pCR2.1-(PNDM-1-blaNDM-1-bleMBL) in the presence of 0, 0.01, 0.1 or 1 mg/ml of Ca-EDTA or DMSA by using the broth microdilution method in zinc-complemented M9CA minimum medium (SD7025, Euromedex, France).
(§3) A 100 mM DMSA stock solution (Sigma Aldrich, France) (pH 5.0) was prepared in 0.2 M NaOH as recommended (Maiorino et al. 1990) and pH was neutralized to pH 7.0 with NaHCO3 Na2Ca-EDTA (Sigma Aldrich, France) dissolved in water.
(§4) The strains were as follows: VIM producers (n=10), IMP producers (n=9), NDM-1 producers (n=10). The selected concentration of DMSA was 10-fold (0.3 mM) and 100-fold (3 mM) that of the human peak serum concentration after oral administration (Asiedu et al;, 1995), and that of Ca-EDTA was assayed at the fixed concentration of 0.2 mM (Table 2). […]

For experiment [2], the system named is E. coli DIH. Nature of the experiment: MIC of carbapenems with or without DMSA. The following applies: VIM-19, no DMSA. The format is cell-based. The method, then: as §1, §2, §3, §4
Experiment [3] has as its system E. coli COUP. Nature of the experiment: MIC of carbapenems with or without DMSA. Type of experiment: cell-based. Conditions: NDM-7 + OXA-1 +CTX-M-15, no DMSA. The method, then: as §1, §2, §3, §4
Experiment [4] relates to E. cloacae 1008183. The experiment is described as follows: MIC of carbapenems with or without DMSA. Type of experiment: cell-based. The following applies: E. cloacae 1008183, IMP-1; no DMSA. The method, then: as §1, §2, §3, §4
The subject of experiment [5] is E. coli MAD. The experiment is described as follows: MIC of carbapenems with or without DMSA. The format is cell-based. Conditions: VIM-1 + CTX-M-3, no DMSA. As to the method: as §1, §2, §3, §4
For experiment [6], the system named is E. cloacae 396715. Nature of the experiment: MIC of carbapenems with or without DMSA. Type of experiment: cell-based. Conditions: E. cloacae 396715, VIM-1; no DMSA. The method, then:
as §1, §2, §3, §4

Experiment [7] relates to E. coli BOUN. Nature of the experiment: MIC of carbapenems with or without DMSA. Type of experiment: cell-based. The following applies: NDM-4 + OXA-1, no DMSA. As to the method:
as §1, §2, §3, §4

Experiment [8] concerns E. cloacae 1008029. The experiment is described as follows: MIC of carbapenems with or without DMSA. Type of experiment: cell-based. Conditions: E. cloacae 1008029, VIM-1 + CTX-M-3; no DMSA. The method, then: as §1, §2, §3, §4
For experiment [9], the system named is E. cloacae 1008085. Nature of the experiment: MIC of carbapenems with or without DMSA. The format is cell-based. Conditions: E. cloacae 1008085, IMP-1; no DMSA. As to the method:
as §1, §2, §3, §4

Experiment [10] relates to E. coli 405. Nature of the experiment: MIC of carbapenems with or without DMSA. Type of experiment: cell-based. The following applies: E. coli 405, NDM-5 + TEM-1 +CTX-M-15; no DMSA. As to the method: as §1, §2, §3, §4
The subject of experiment [11] is E. coli IBIS. Nature of the experiment: MIC of carbapenems with or without DMSA. The format is cell-based. The following applies: VIM-4, no DMSA, unit assumed. The method, then:
as §1, §2, §3, §4

The test system of experiment [12] is E. coli 1108013. The experiment is described as follows: MIC of carbapenems with or without DMSA. Type of experiment: cell-based. The following applies: E. coli 1108013, IMP-1 + TEM-1; no DMSA. As to the method:
as §1, §2, §3, §4

The subject of experiment [13] is E. coli JAP. Nature of the experiment: MIC of carbapenems with or without DMSA. Conditions: IMP-1, no DMSA. Type of experiment: cell-based. The method, then: as §1, §2, §3, §4
For experiment [14], the system named is E. coli 162. Nature of the experiment: MIC of carbapenems with or without DMSA. The format is cell-based. Conditions: E. coli 162, NDM-5 + TEM-1 +CTX-M-15; no DMSA. The method, then: as §1, §2, §3, §4
Experiment [15] concerns E. coli 1008077. The experiment is described as follows: MIC of carbapenems with or without DMSA. The format is cell-based. The following applies: E. coli 1008077, VIM-1 + TEM-3; no DMSA. As to the method:
as §1, §2, §3, §4

Experiment [16] deals with E. cloacae 1008186. The experiment is described as follows: MIC of carbapenems with or without DMSA. Type of experiment: cell-based. Conditions: E. cloacae 1008186, IMP-1; no DMSA. As to the method: as §1, §2, §3, §4
For experiment [17], the system named is E. cloacae TAW. Nature of the experiment: MIC of carbapenems with or without DMSA. The format is cell-based. Conditions: IMP-8, no DMSA. The method, then: as §1, §2, §3, §4
For experiment [18], the system named is E. coli IR5. The experiment is described as follows: MIC of carbapenems with or without DMSA. Type of experiment: cell-based. Conditions: E. coli IR5, NDM-1 + TEM-1 +CTX-M-15; no DMSA. As to the method: as §1, §2, §3, §4
Experiment [19] relates to K.p. 0709124. Nature of the experiment: MIC of carbapenems with or without DMSA. The format is cell-based, K. pneumoniae. The following applies: K.p. 0709124, IMP-1b + TEM-15; no DMSA. The method, then: as §1, §2, §3, §4
Experiment [20] relates to K.p. ROUM. Nature of the experiment: MIC of carbapenems with or without DMSA. Type of experiment: cell-based, K. pneumoniae. Conditions: VIM, no DMSA. As to the method:
as §1, §2, §3, §4

Experiment [21] concerns K.p. 6852. Nature of the experiment: MIC of carbapenems with or without DMSA. The format is cell-based, K. pneumoniae. Conditions: K.p. 6852, IMP-1 + SHV-5; no DMSA. As to the method: as §1, §2, §3, §4
The subject of experiment [22] is K.p. TAW. Nature of the experiment: MIC of carbapenems with or without DMSA. The format is cell-based, K. pneumoniae. The following applies: IMP-8 + SHV-5, no DMSA. As to the method: as §1, §2, §3, §4
Experiment [23] deals with T1, NDM-1 (Klebsiella pneumoniae, UniProt C7C422).
T1 construct: made in house
T1 sequence (C7C422 29-270, looked up): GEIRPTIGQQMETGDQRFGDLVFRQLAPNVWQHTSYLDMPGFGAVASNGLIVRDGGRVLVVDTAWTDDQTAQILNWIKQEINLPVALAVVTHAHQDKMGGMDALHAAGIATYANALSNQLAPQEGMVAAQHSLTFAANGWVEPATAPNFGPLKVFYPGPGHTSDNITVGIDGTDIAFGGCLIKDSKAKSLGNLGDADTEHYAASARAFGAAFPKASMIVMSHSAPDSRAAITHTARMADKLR
The following applies: affinity for NDM-1; cited from earlier work.

Experiment [24] has as its system Kp C3 KPC-3. Nature of the experiment: MIC of meropenem with or without DMSA or MSA (negative control strain, non-metallo carbapenemase KPC). The format is cell-based, K. pneumoniae. Conditions: Klebsiella pneumoniae, C3KPC3; Kp C3 KPC-3 (negative control); without DMSA or MSA. As to the method: (§5) MICs of meropenem with of without DMSA or MSA Table 3
(§6) DMSA and MSA were used at a concentration of 3 mM each. A negative control was used as strain KpC3 producing the non- metallo carbapenemase KPC

Experiment [25] deals with E. coli NDM FEK. The experiment is described as follows: MIC of meropenem with or without DMSA or MSA. Type of experiment: cell-based. Conditions: Escherichia coli, without DMSA or MSA. As to the method: (§7) DMSA reduced the MICs of ertapenem for bacteria producing NDM-1 though the synergy effect was weaker than that observed for bacteria producing IMP and VIM-type MBLs.
as §5, §6

Experiment [26] has as its system E. coli VIM KOW7. The experiment is described as follows: MIC of meropenem with or without DMSA or MSA. The format is cell-based. The following applies: Escherichia coli, VIMKOW7, without DMSA or MSA. As to the method:
as §7, §5, §6

The subject of experiment [27] is E. coli NDM CHAN. Nature of the experiment: MIC of meropenem with or without DMSA or MSA. The format is cell-based. The following applies: Escherichia coli, without DMSA or MSA. As to the method:
as §7, §5, §6

The test system of experiment [28] is E. coli NDM pCR2.1. The experiment is described as follows: MIC of meropenem with or without DMSA or MSA. Type of experiment: cell-based. The following applies: Escherichia coli, NDMPCR2.1, read-out: MIC of meropenem. The method, then:
as §7, §5, §6

Experiment [29] relates to Kp VIM KOW1. Nature of the experiment: MIC of meropenem with or without DMSA or MSA. The format is cell-based, K. pneumoniae. Conditions: Klebsiella pneumoniae, VIMKOW1, without DMSA or MSA. As to the method: as §5, §6
The subject of experiment [30] is Kp NDM KIE. The experiment is described as follows: MIC of meropenem with or without DMSA or MSA. Type of experiment: cell-based, K. pneumoniae. The following applies: Klebsiella pneumoniae, without DMSA or MSA. The method, then: as §5, §6
In experiment [31] the test system is Kp NDM IND. The experiment is described as follows: MIC of meropenem with or without DMSA or MSA. The format is cell-based, K. pneumoniae. The following applies: Klebsiella pneumoniae, without DMSA or MSA. The method, then: as §5, §6

The source of these data is patent publication EP2979694B1, “Dimercaptosuccinic acid for the treatment of multidrug resistant bacterial infections” (priority 2014, dated 2016).

Some results are limits rather than exact numbers.

By MIC is commonly meant the lowest concentration found to suppress growth. `C[C@@H](O)[C@H]1C(=O)N2C(C(=O)O)=C(SCCN=CN)C[C@H]12` [IPM, imipenem]: the MIC is 4 µg/mL in [1]; 16 µg/mL in [2]; 2 µg/mL in [3]; 8 µg/mL in experiment [4]; 0.25 µg/mL in experiment [5]; 4 µg/mL in experiment [6]. The minimum inhibitory concentration (MIC) in experiment [7] was 2 µg/mL; in experiment [8], 16 µg/mL; in [9] it was 2 µg/mL; in experiment [10], 32 µg/mL; in experiment [11] it was 1 µg/mL; in [12] it was 4 µg/mL. Besides, the minimal inhibitory concentration (MIC) in [13] came to 0.25 µg/mL; in experiment [14], 32 µg/mL; in experiment [15], 32 µg/mL; in experiment [16] it was 16 µg/mL; in experiment [17] it was 4 µg/mL; in experiment [18] it was 2 µg/mL. The minimal inhibitory concentration (MIC) in experiment [19] was 32 µg/mL; in experiment [20], 32 µg/mL; in [21], more than 32 µg/mL; in experiment [22] it was 4 µg/mL.

A word on the Ki: it is the dissociation constant of the complex between target and ligand, obtained from inhibition or displacement. `CC/C(C(=O)O)=C(\CC)C(=O)O` [ME1071]: in [23], the Ki is 24 mM.

For `C[C@@H](O)[C@H]1C(=O)N2C(C(=O)O)=C(S[C@@H]3CN[C@H](C(=O)N(C)C)C3)[C@H](C)[C@H]12` [meropenem], the minimum inhibitory concentration (MIC) in experiment [24] is more than 32 µg/mL; in experiment [25], 6 µg/mL; in experiment [26], 0.5 µg/mL; in [27] it was 3 µg/mL; in experiment [28], more than 32 µg/mL; in experiment [29], more than 32 µg/mL. Further, the minimal inhibitory concentration (MIC) in experiment [30] and in [31] was 4 µg/mL each time.
